tested on: cellular ROCK activity (cofilin phosphorylation at Ser3) in A7r5 rat smooth muscle cells; assay: Cellular ROCK activity: cofilin (Ser3) phosphorylation, In-Cell Western assay; assay type: cell-based; conditions: Rattus norvegicus, A7R5, 1 h, 1 hour compound incubation, phospho-cofilin (Ser3), read-out: CELL_IC50
Procedure: The potency of Rho-associated protein kinase (ROCK) inhibitors was quantified by measuring cofilin phosphorylation levels at Serine 3 (Ser3) as a measure of cellular ROCK activity by In-Cell Western assay. […] The assay plate was imaged and quantified on the Odyssey imager (LICOR Biosciences).
ROCK inhibitor compound plate preparation. […] Stock compounds and control are added directly to ECHO plate (Labcyte) by Janus.
A7r5 cell culture and plating. A7r5 cells were cultured according to standard cell culture protocols in A7r5 growth media (DMEM with Glutamax and 10% FBS). […] 45 μl of re-suspended A7r5 cells were plated at 3000 cells/well in a sterile, μclear, black, F-bottom, 384-well microplate (Greiner bio-one). Seeded cells allowed to settle in wells on the bench for 1 hour before incubation at 37° C., 5% CO2 overnight.
Assay reagent and antibody preparations. Wash buffer was prepared by addition of Tween-20 to Dulbecco's Phosphate Buffered Saline (DPBS) (1×) without calcium and magnesium to make 1% Tween-20 as final concentration. Blocking buffer was prepared by addition of TritonX-100 to SeaBlock buffer (ThermoFisher) to make 0.3% TritonX-100 as final concentration. […] Secondary antibody mix was prepared by diluting donkey anti-rabbit 800CW antibody (LICOR Biosciences) 1:1000 in SeaBlock buffer.
Assay procedure. Compound plate was diluted by addition of 19 μl/well compound dilution buffer (DMEM with Glutamax) using 125 μl 16-channel Matrix electronic pipette. 5 μl diluted compound was stamped from compound plate to assay plate containing A7r5 cells using Bravo (384-well head from Agilent) liquid handler and incubated at 37° C., 5% CO2 for 1 hour. Cells were fixed by addition of 5 μl 37% formaldehyde using 125 μl 16-channel Matrix electronic pipette and incubation for 20 min at room temperature. The assay plate was washed 5× with 60 μl/well wash buffer. […] Next, the assay plate was sealed, centrifuged at 1000 rpm for 5 seconds and incubated at 4° C. overnight on an orbital shaker at 300 rpm. […] The assay plate was centrifuged at 1000 rpm for 5 seconds and incubated on an orbital shaker at 300 rpm for 60 min at room temperature. Finally, assay plate was washed and wells left empty before measurement of 700 nm and 800 nm fluorescence intensities on Odyssey imager set at 4.0 mm focus offset.

SMILES | IC50 [nM]
COc1cccc([C@@H](C)NC(=O)N2CCN(c3ccnc(F)c3)CC2)c1 [Example 101] | 871
COc1cccc([C@H](C)NC(=O)N2CCN(c3ccncc3F)C[C@H]2C)c1Cl [Example 140] | 2620
C[C@H](NC(=O)N1CCN(c2ccncc2F)C[C@H]1C)c1cccc(F)c1Cl [Example 48, (R)—N—((S)-1-(2-chloro-3-fluorophenyl)ethyl)-4-(3-fluoropyridin-4-yl)-2-methylpiperazine-1-carboxamide] | 279
C[C@@H]1CN(c2ccnc(F)c2)CCN1C(=O)N[C@H](C)c1ccccc1Cl [Example 109] | 1090
Cc1cc2c([C@@H](C)NC(=O)N3CCN(c4ccnc(F)c4)C[C@H]3C)cccc2o1 [Example 4, (R)-4-(2-Fluoropyridin-4-yl)-2-methyl-N—((R)-1-(2-methylbenzofuran-4-yl)ethyl)piperazine-1-carboxamide] | 356
C[C@@H]1CN(c2ccnc(F)c2)CCN1C(=O)N[C@H](C)c1cccc(OC(F)F)c1 [Example 108] | 638
Cc1cc2c([C@@H](C)NC(=O)N3CCN(c4ccncc4F)C[C@H]3C)cccc2o1 [Example 60, (R)-4-(3-Fluoropyridin-4-yl)-2-methyl-N—((R)-1-(2-methylbenzofuran-4-yl)ethyl)piperazine-1-carboxamide] | 33.1
C[C@@H]1CN(c2ccncc2F)CCN1C(=O)NCc1cccc2c1cnn2C [Example 79, (R)-4-(3-Fluoropyridin-4-yl)-2-methyl-N-((1-methyl-1H-indazol-4-yl)methyl)piperazine-1-carboxamide] | 2010
C[C@@H](NC(=O)N1CCN(c2ccncc2F)CC1)c1ccccc1Br [Example 19, (R)—N-(1-(2-Bromophenyl)ethyl)-4-(3-fluoropyridin-4-yl)piperazine-1-carboxamide] | 1470
Cc1nc2c([C@@H](C)NC(=O)N3CCN(c4ccncc4F)C[C@H]3C)cccc2o1 [Example 69, (R)-4-(3-Fluoropyridin-4-yl)-2-methyl-N—((R)-1-(2-methylbenzo[d]oxazol-4-yl)ethyl)piperazine-1-carboxamide] | 104
C[C@@H]1CN(c2ccncc2F)CCN1C(=O)N[C@H](C)c1cccc2nccn12 [Example 58, (R)-4-(3-fluoropyridin-4-yl)-N—((R)-1-(imidazo[1,2-a]pyridin-5-yl)ethyl)-2-methylpiperazine-1-carboxamide] | 17.6
C[C@@H]1CN(c2ccncc2F)CCN1C(=O)NCc1cccc2ncccc12 [Example 80, (R)-4-(3-Fluoropyridin-4-yl)-2-methyl-N-(quinolin-5-ylmethyl)piperazine-1-carboxamide] | 75.5
CC[C@@H]1CN(c2ccncc2F)CCN1C(=O)N[C@H](C)c1cccc(OC)c1 [Example 83, (R)-2-Ethyl-4-(3-fluoropyridin-4-yl)-N—((R)-1-(3-methoxyphenyl)ethyl)piperazine-1-carboxamide] | 31.4
C[C@@H]1CN(c2ccncc2F)CCN1C(=O)NCc1cccc2c1OCO2 [Example 75, (R)—N-(Benzo[d][1,3]dioxol-4-ylmethyl)-4-(3-fluoropyridin-4-yl)-2-methylpiperazine-1-carboxamide] | 150
C[C@@H]1CN(c2ccncc2F)CCN1C(=O)N[C@H](C)c1cccc2ccn(C)c12 [Example 63, (R)-4-(3-Fluoropyridin-4-yl)-2-methyl-N—((R)-1-(1-methyl-1H-indol-7-yl)ethyl)piperazine-1-carboxamide] | 44.2
C[C@@H]1CN(c2ccncc2F)CCN1C(=O)N[C@H](C)c1ccccc1Br [Example 45, (R)—N—((R)-1-(2-Bromophenyl)ethyl)-4-(3-fluoropyridin-4-yl)-2-methylpiperazine-1-carboxamide] | 125
C[C@@H](NC(=O)N1CCN(c2ccncc2F)CC1)c1cccc2ccn(C)c12 [Example 32, (R)-4-(3-fluoropyridin-4-yl)-N-(1-(1-methyl-1H-indol-7-yl)ethyl)piperazine-1-carboxamide] | 410
C[C@@H](NC(=O)N1CCN(c2ccncc2F)CC1)c1ccc(F)cc1Cl [Example 21, (R)—N-(1-(2-Chloro-4-fluorophenyl)ethyl)-4-(3-fluoropyridin-4-yl)piperazine-1-carboxamide] | 1780

SMILES | IC50 [nM]
C[C@H]1CN(C(=O)NCc2cccc(OC(F)F)c2)CCN1c1ccncc1F [Example 149] | 2740
C[C@@H](NC(=O)N1CCN(c2ccncc2F)[C@@H](C)C1)c1cccc2occc12 [Example 148] | 71.6
C[C@@H]1CN(c2ccncc2F)CCN1C(=O)N[C@H](C)c1cccnc1 [Example 52, (R)-4-(3-Fluoropyridin-4-yl)-2-methyl-N—((R)-1-(pyridin-3-yl)ethyl)piperazine-1-carboxamide] | 234
C[C@@H]1CN(c2c(F)cncc2F)CCN1C(=O)N[C@H](C)c1cccc2c1CCO2 [Example 156] | 4.9
Cc1cnc2cccc([C@H](C)NC(=O)N3CCN(c4ccnc(F)c4)C[C@H]3C)n12 [Example 10, (R)-4-(2-Fluoropyridin-4-yl)-2-methyl-N—((S)-1-(3-methylimidazo[1,2-a]pyridin-5-yl)ethyl)piperazine-1-carboxamide] | ≥ 5000
COc1ccc(Cl)c([C@@H](C)NC(=O)N2CCN(c3ccncc3F)C[C@H]2C)c1 [Example 49, (R)—N—((R)-1-(2-Chloro-5-methoxyphenyl)ethyl)-4-(3-fluoropyridin-4-yl)-2-methylpiperazine-1-carboxamide] | 164
COc1cccc([C@@H](C)NC(=O)N2CCN(c3ccnc(F)c3)[C@@H](C)C2)c1 [Example 117] | 107
C[C@@H]1CN(c2ccncc2F)CCN1C(=O)N[C@H](C)c1ccccc1Cl [Example 42, (R)—N—((R)-1-(2-Chlorophenyl)ethyl)-4-(3-fluoropyridin-4-yl)-2-methylpiperazine-1-carboxamide] | 73
O=C(NCc1cccc2occc12)N1CCN(c2ccncc2F)CC1 [Example 38, N-(Benzofuran-4-ylmethyl)-4-(3-fluoropyridin-4-yl)piperazine-1-carboxamide] | 761
C[C@@H](NC(=O)N1CCN(c2ccnc(F)c2)CC1)c1cccc2occc12 [Example 104] | 830
C[C@@H]1CN(c2ccncc2F)CCN1C(=O)N[C@H](C)c1cccc(F)c1Cl [Example 47, (R)—N—((R)-1-(2-Chloro-3-fluorophenyl)ethyl)-4-(3-fluoropyridin-4-yl)-2-methylpiperazine-1-carboxamide] | 131
Cc1nc2c([C@H](C)NC(=O)N3CCN(c4ccncc4F)C[C@H]3C)cccc2o1 [Example 70, (R)-4-(3-Fluoropyridin-4-yl)-2-methyl-N—((S)-1-(2-methylbenzo[d]oxazol-4-yl)ethyl)piperazine-1-carboxamide] | 3000
C[C@@H]1CN(c2ccncc2F)CCN1C(=O)NCc1cccc2occc12 [Example 76, (R)—N-(Benzofuran-4-ylmethyl)-4-(3-fluoropyridin-4-yl)-2-methylpiperazine-1-carboxamide] | 86.1
COc1cc(F)cc([C@@H](C)NC(=O)N2CCN(c3ccncc3F)CC2)c1 [Example 128] | 163
COc1cc(F)cc([C@@H](C)NC(=O)N2CCN(c3ccncc3F)C[C@H]2C)c1 [Example 51, (R)—N—((R)-1-(3-Fluoro-5-methoxyphenyl)ethyl)-4-(3-fluoropyridin-4-yl)-2-methylpiperazine-1-carboxamide] | 15.2
C[C@@H](NC(=O)N1CCN(c2ccnc(F)c2)CC1)c1cccc2c1CCO2 [Example 102] | 198
COc1cccc([C@@H](C)NC(=O)N2CCN(c3ccncc3F)C[C@H]2C)c1Cl [Example 135] | 1040

biological target: human catalytic domain ROCK II protein (amino acids 5-554) with a N-terminal GST tag (Homo sapiens, UniProt O75116); assay: biochemical; conditions: not given
Sequence (O75116 5-554): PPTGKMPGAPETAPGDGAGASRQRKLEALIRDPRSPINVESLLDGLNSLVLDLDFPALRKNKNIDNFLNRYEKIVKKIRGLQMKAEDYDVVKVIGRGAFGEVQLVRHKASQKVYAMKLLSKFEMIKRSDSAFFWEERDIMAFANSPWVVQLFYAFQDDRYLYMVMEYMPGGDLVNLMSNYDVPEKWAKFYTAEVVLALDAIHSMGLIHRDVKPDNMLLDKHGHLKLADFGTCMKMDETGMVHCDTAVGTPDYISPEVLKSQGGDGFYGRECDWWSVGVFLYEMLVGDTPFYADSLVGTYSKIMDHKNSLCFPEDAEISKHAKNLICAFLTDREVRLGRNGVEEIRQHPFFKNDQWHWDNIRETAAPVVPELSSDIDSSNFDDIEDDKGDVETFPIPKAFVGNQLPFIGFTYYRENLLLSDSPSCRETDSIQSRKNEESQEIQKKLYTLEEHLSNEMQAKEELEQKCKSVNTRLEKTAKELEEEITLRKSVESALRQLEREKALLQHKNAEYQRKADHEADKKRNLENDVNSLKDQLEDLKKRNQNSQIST

SMILES | IC50 [nM]
C[C@H](NC(=O)N1CCN(c2ccncc2F)C[C@H]1C)c1cccc2nn(C)cc12 [Example 72, (R)-4-(3-Fluoropyridin-4-yl)-2-methyl-N—((S)-1-(2-methyl-2H-indazol-4-yl)ethyl)piperazine-1-carboxamide] | 86.6
COc1cccc(CNC(=O)N2CCN(c3ccnc(F)c3)[C@@H](C)C2)c1 [Example 121] | 102
C[C@@H]1CN(c2ccnc(F)c2)CCN1C(=O)NCc1cccc2c1OCO2 [Example 6, (R)—N-(Benzo[d][1,3]dioxol-4-ylmethyl)-4-(2-fluoropyridin-4-yl)-2-methylpiperazine-1-carboxamide] | 117

Source: US12428413B2 (CHDI Foundation, Inc., priority 2019, dated 2025)
